# According to patent US9499478B2, “Substituted cyclopentanes for inducing hair growth” (Allergan, Inc., priority 2011, dated 2016):
# How the values were obtained:
# [1] = In vitro human skin penetration, Franz diffusion chamber; assay type: in vitro ADME; conditions: for conversion to bimatoprost in the receptor chamber solution / Percentage Dose Applied, Receptor Chamber Solution, Prodrug / Percentage Dose Applied, Upper ⅓ Dermis, Prodrug: 0.03% in Formulation A; for Percentage Dose Applied, Receptor Chamber Solution, Prodrug / Percentage Dose Applied, Upper ⅓ Dermis, Prodrug: applied agent; for Percentage Dose Applied, Upper ⅓ Dermis, Prodrug: dermis at 48 hrs; for conversion to bimatoprost in skin layers: SC/Epi/Dermis layers
# Description: Experimental Design. Test material: Dermatomed ex vivo human cadaver posterior trunk skin on 1.0 cm^2 Franz diffusion chamber as known in the art. Test size: 3 skin donors (obtained from New York Firefighters Skin Bank), 3 replicates per donor per formulation. Test formulations: 0.03% active agent (Cmpd IVa, Cmpd IIIb, Cmpd IVb) in Formulation A; control formulation: bimatoprost at 0.03% in Formulation A. Dosing regimen: receptor fluid at 2, 4, 24, and 48 hrs; SC/epidermis and dermis at 48 hrs. Sample analysis: LC/MS-MS to detect bimatoprost and Cmpds IVa, IIIb and IVb.
# [2] = Dermal tolerability in rats; assay type: in vivo; conditions: female rats, 3 mg/kg/day daily for 8 days; for change in food consumption or body weight gain (in words): IVb decreases not statistically significant
# Method: Experimental Design. Female rats were administered either vehicle or one of Cmpds IVa, IIIb, or IVb daily for 8 days. The administered dose was 3 mg/kg/day, at a concentration of 3 mg/mL. Observed data were body weight, viability, food consumption, and dermal observation (skin reaction grading), as known in the art. The vehicle was Formulation A. See Table 1 above.
# [3] = Pharmacokinetic assessment of mouse hair regrowth model (blood and skin); assay type: in vivo, mice; conditions: 0.03% dermal daily, all measured time points, LC/MS-MS
# Method: Experimental Design. Female C57BL/6J mice (n=2) were assayed per time point per treatment group. Treatment groups: (1) vehicle; (2) 0.03% Cmpd IVa; (3) 0.03% Cmpd IIIb; (4) 0.03% Cmpd IVb; (5) 0.03% bimatoprost. Treatment dosing: dermal daily application of ˜60 uL test compound solution. Blood and skin pharmacokinetic time points were obtained at day 1 (1, 4, 8 and 24-hrs post-dose); day 2 (24-hrs post-dose); day 14 (24-hrs post-dose); and day 42 (28 days post day 14 dose). Bioanalysis employed LC/MS-MS.
# [4] = microAmes mutagenesis screen; assay type: cell-based; conditions: with or without metabolic activation
# Description: Experimental Design. Cmpds IVa, IIIb, and IVb were subjected to the microAmes screen, as known in the art.
# [5] = tested on: mouse model of hair regrowth; assay: Piliation studies (mouse model of hair regrowth); assay type: in vivo, mice
# Method: Experimental Design. C57Black/6J, 7-week old female mice (n=10) were employed in piliation studies. Dorsal hair was shaved (area ˜2 cm×4 cm). Dosing of active agent was once per day (QD) by topical administration for 14 days. Observations were conducted for 42-days to determine onset of new hair growth and day of hair growth completion. Compounds were formulated as either a) 50% propylene glycol, 30% ethanol, 20% water, or b) the formulation of Formulation A described above. The experiments reported for FIGS. 4A-4B, 5A-5B, 6A-6B, 8A-8B, and 9A-9B were conducted using a vehicle with formulation of 50% propylene glycol, 30% ethanol, 20% water. The experiments reported for FIGS. 7A-7B were conducted using a vehicle of Formulation A described above.
# Results. For each of FIGS. 4A, 5A, 6A, 7A, 8A and 9A, the histograms depict the day of onset of hair growth. For each of FIGS. 4B, 5B, 6B, 7B, 8B and 9B, the histograms depict the day achieving full hair growth.
# mouse skin = assay: Pathology assessment of mouse hair regrowth model; assay type: in vivo, mice; conditions: histology, 0.03%; vehicle control still in growth phase
# Description: Experimental Design. Histological samples from test subjects employed in the studies described in Example 12 were obtained for pathology assessment.
# [6] = MALDI-MS imaging of compound distribution in mouse skin; assay type: in vivo
# Method: Rationale. In order to determine the penetration, accumulation and/or differential distribution of bimatoprost and compounds disclosed herein upon dermal administration, MALDI-MS (matrix assisted laser desorption ionization mass spectroscopy) imaging was conducted on explanted samples of mouse skin after topical dermal administration.
# Experimental Design. MALDI-MS imaging was conducted on mouse skin strips after administration of bimatoprost or compound disclosed herein once daily for 3 days. Samples of mouse skin were recovered 4 hr after day-3 dosing of compound. Dermal administration was conducted with vehicle, 0.03% bimatoprost, 3% bimatoprost, 0.03% Cmpd IVa, and 3% Cmpd IVa.
# FIG. 16A depicts a typical explanted sample of mouse skin for these studies, wherein Cmpd IVa was applied via dermal administration. FIG. 16B depicts the result of MALDI-MS imaging. The intensity of each pixel within FIG. 16B reflects the concentration of Cmpd IVa at the corresponding point in the image depicted in FIG. 16A. FIG. 16C depicts a representative mass spectrum, corresponding to the region of FIG. 16B indicated by the white circle within FIG. 16B. Accordingly, each pixel of the image of FIG. 16B has an associated mass spectrum, providing the amounts of bimatoprost or other administered compound or metabolite thereof.
conversion to bimatoprost in the receptor chamber solution [1],"Percentage Dose Applied, Receptor Chamber Solution, Prodrug [1] [%]","Percentage Dose Applied, Upper ⅓ Dermis, Prodrug [1] [%]",conversion to bimatoprost in skin layers [1],level in the systemic circulation [3],skin penetration of compound compared with bimatoprost ([6]; 3.0% topical dermal administration each),detectability of compound in mouse skin by MALDI-MS imaging ([6]; after topical dermal administration at 0.03%),Compound,"Body Weight Gain, Mean ± SD [2] [g]","Food Consumption, Mean ± SD [2] [g]",change in food consumption or body weight gain (in words) [2],mutagenicity [4],pharmacological efficacy relative to bimatoprost ([5]; vehicle Formulation A),hair cycle phase at day-42 (mouse skin),effectiveness of 0.03% compound compared to 0.1% to 0.3% bimatoprost ([5]; 0.03% Cmpd IVa),"pharmacological efficacy relative to bimatoprost ([5]; vehicle 50% propylene glycol, 30% ethanol, 20% water)",activity in the time required to regain full hair growth ([5]; among compounds tested)
observed to convert to bimatoprost,0.8,2.1,converted to bimatoprost,most undetectable,,,"CCNC(=O)CCC/C=C\C[C@@H]1[C@@H](/C=C/[C@@H](O)CCc2ccccc2)[C@H](OC(=O)CC)C[C@@H]1O [Cmpd IIIb, 11-propionyl bimatoprost]",10.0 ± 6.1,22.8 ± 1.36,no significant change,not mutagenic,approximately equivalent efficacy,returned to the resting phase,,,
,1.1,7.0,,most undetectable,,,"CCNC(=O)CCC/C=C\C[C@@H]1[C@@H](/C=C/[C@@H](O)CCc2ccccc2)[C@H](O)C[C@@H]1O [bimatoprost, (Z)-7-((1R,2R,3R,5S)-3,5-dihydroxy-2-((S,E)-3-hydroxy-5-phenylpent-1-enyl)cyclopentyl)-N-ethylhept-5-enamide, reference compound]",,,,,,returned to the resting phase,,,
observed to convert to bimatoprost,4.3,3.8,converted to bimatoprost,most undetectable,similar,detectable,"CCNC(=O)CCC/C=C\C[C@@H]1[C@@H](/C=C/[C@H](CCc2ccccc2)OC(C)=O)[C@H](O)C[C@@H]1O [Cmpd IVa, 15-acetyl-bimatoprost]",9.0 ± 3.0,21.14 ± 1.08,no significant change,not mutagenic,greater than bimatoprost,returned to the resting phase,approximately equally effective,greater than bimatoprost,
observed to convert to bimatoprost,2.1,1.9,converted to bimatoprost,most undetectable,,,"CCNC(=O)CCC/C=C\C[C@@H]1[C@@H](/C=C/[C@H](CCc2ccccc2)OC(=O)CC)[C@H](O)C[C@@H]1O [Cmpd IVb, 15-propionyl-bimatoprost]",0.3 ± 6.7,19.19 ± 1.32,decreases in both food consumption and body weight gain,not mutagenic,approximately equivalent efficacy,returned to the resting phase,,,best activity
